In brackets after ≈: the same amount, converted by molar mass. Where two headings read alike, the source gives them in different places.
Experiments:
K. pneumoniae ATCC13883 = assay: Antibacterial activity, MIC by broth microdilution (CLSI); format: cell-based; conditions: Klebsiella pneumoniae
Procedure: (§1) The in vitro minimum inhibitory concentration (MIC) was determined in accordance with the CLSI guidelines, and was measured using the broth microdilution method.
(§2) The experimental process is briefly described as follows: The test compound was dissolved in DMSO to prepare a […] stock solution, which was then prepared into 11 twice-diluted 100× high-concentration working solutions (the final concentration of the system was 64 μg/mL-0.06 μg/mL) using DMSO. The strains (K. pneumoniae ATCC13883 and E. coli ATCC 25922) frozen in −80° C. glycerol were inoculated into solid agar medium, placed in an incubator at 35° C. for 18-24 hours of incubation. After the preparation of strains was completed, an appropriate amount of solid plate culture was collected, resuspended in physiological saline, and mixed well. The bacterial suspension was adjusted to a suitable turbidity using a turbidity meter, containing approximately 1×10^8 cfu/mL bacteria. Then the bacterial suspension with the adjusted turbidity was diluted to a bacterial concentration of 5×10^5 cfu/ml using the culture medium for measurement, to complete the preparation of the inoculum solution. 198 μL of the inoculum solution was inoculated into a 96-well plate, and then added with 2 μL of a 100× high-concentration working solution of the compound. Then the 96-well plate was placed at 35° C. for 18 to 24 hours of incubation.

E. coli ATCC 25922 = assay: as above; format: cell-based; conditions: Escherichia coli
Procedure: as §1, §2

[1] = biological target: recombinant Pseudomonas aeruginosa LpxC (Pseudomonas aeruginosa (strain ATCC 15692 / DSM 22644 / CIP 104116 / JCM 14847 / LMG 12228 / 1C / PRS 101 / PAO1), UniProt P47205); assay: Inhibition of LpxC enzymatic activity (fluorescamine assay); format: biochemical
Procedure: The degree of inhibition of the enzymatic activity of recombinant Pseudomonas aeruginosa LpxC by the compounds of the present disclosure under in vitro conditions was determined using the following method.
The experimental procedure is briefly described as follows: The test compound was first dissolved in DMSO to prepare a 10 mM stock solution. The reaction was carried out in a 96-well microplate. First, 20 μL of recombinant Pseudomonas aeruginosa LpxC (purchased from Signalway Antibody, product number AP74647-2) was added to each well, with a final concentration of 5 nM. 5 μL of the compound to be tested was then added, and the compound was diluted 4 times to 8 concentration points with a concentration range of 0.61-10,000 nM. 5 μL of LpxC substrate UDP-3-O—(R-3-hydroxydecanoyl)-GlcNAc (purchased from Biosynth Carbosynth, product number: mu75071) was added, with a final concentration of the substrate of 10 μM. The plate was incubated at 25° C. for 120 minutes. Then 20 μL of 2.0 mg/mL fluorescamine (purchased from sigmaaldrich, product number: F9015, solvent: 1:1 dimethylformamide/acetonitrile) was added to the reaction system, and mixed well for 10 minutes of reaction. Finally, 50 μL of 200 mM sodium phosphate buffer (pH 8.0) was added to terminate the reaction. Reading was carried out using a microplate reader (BMG), and the excitation and emission wavelengths were 390 and 495 nm respectively. By comparing with the fluorescence intensity ratio of the control group ([…]), the percentage inhibition rate of the compound at each concentration was calculated.

[2] = K. pneumoniae ATCC13883, 35° C., 18 to 24 hours, read-out: MIC(K. Pneumoniae)
[3] = ATCC25922, E. coli ATCC 25922, 35° C., 18 to 24 hours, read-out: MIC(E. coli)
[4] = recombinant P. aeruginosa LpxC 5 nM, substrate 10 μM, 25° C., 120 minutes, read-out: IC50

Structure (SMILES)	MIC (K. pneumoniae ATCC13883; [2])	MIC (E. coli ATCC 25922; [3])	IC50 [1, 4]	IC50 [1]	MIC (K. pneumoniae ATCC13883; ATCC13883, read-out: MIC(K. Pneumoniae))	MIC (E. coli ATCC 25922; ATCC25922, read-out: MIC(E. coli))
CCOC(=O)CC1CN(Cc2ccc(C#Cc3ccc(-c4cc(Cn5ccnc5[C@H](C)O)no4)cc3)cc2)C1 [Example 111, Ethyl (S)-2-(1-(4-((4-(3-((2-(1-hydroxyethyl)-1H-imidazol-1-yl)methyl)isoxazol-5-yl)phenyl)ethynyl)benzyl)azetidin-3-yl)acetate]	1 µg/mL (≈ 1.91 µM)	1 µg/mL (≈ 1.91 µM)	8.59 nM	–	–	–
C[C@H](O)c1nccn1Cc1cc(-c2ccc(C#Cc3ccc(C(N)=O)nc3)cc2)on1 [Example 28, (S)-5-((4-(3-((2-(1-Hydroxyethyl)-1H-imidazol-1-yl)methyl)isoxazol-5-yl)phenyl)ethynyl)picolinamide]	2 µg/mL (≈ 4.84 µM)	1 µg/mL (≈ 2.42 µM)	–	19.9 nM	–	–
CNC(=O)c1ccc(C#Cc2ccc(-c3cc(Cn4ccnc4[C@H](C)O)no3)cc2)cc1 [Example 43, (S)-4-((4-(3-((2-(1-hydroxyethyl)-1H-imidazol-1-yl)methyl)isoxazol-5-yl)phenyl)ethynyl)-N-methylbenzamide]	8 µg/mL (≈ 18.8 µM)	1 µg/mL (≈ 2.34 µM)	36.7 nM	–	–	–
C[C@H](O)c1nccn1Cc1cc(-c2ccc(C#Cc3ccc(CO)nc3)cc2)on1 [Example 37, (S)-1-(1-((5-(4-((6-(hydroxymethyl)pyridin-3-yl)ethynyl)phenyl)isoxazol-3-yl)methyl)-1H-imidazol-2-yl)ethan-1-ol]	2 µg/mL (≈ 4.99 µM)	1 µg/mL (≈ 2.5 µM)	3.55 nM	–	–	–
C[C@H](O)c1nccn1Cc1cc(-c2ccc(C#Cc3ccc(CN4CCN(C)CC4)cc3)cc2)on1 [Example 48, (S)-1-(1-((5-(4-((4-((4-methylpiperazin-1-yl)methyl)phenyl)ethynyl)phenyl)isoxazol-3-yl)methyl)-1H-imidazol-2-yl)ethan-1-ol]	8 µg/mL (≈ 16.6 µM)	2 µg/mL (≈ 4.15 µM)	9.77 nM	–	–	–
C[C@H](O)c1nccn1Cc1cc(-c2ccc(C#Cc3ccc(CNC4CCS(=O)(=O)C4)cc3)cc2)on1 (stereo partly shown) [Example 31]	4 µg/mL (≈ 7.74 µM)	2 µg/mL (≈ 3.87 µM)	–	6.06 nM	–	–
C[C@H](O)c1nccn1Cc1cc(-c2ccc(C#Cc3ccc(C(=O)N4CCOCC4)cc3)cc2)on1 [Example 6, (S)-(4-((4-(3-((2-(1-hydroxyethyl)-1H-imidazol-1-yl)methyl)isoxazol-5-yl)phenyl)ethynyl)phenyl)(morpholino)methanone]	4 µg/mL (≈ 8.29 µM)	2 µg/mL (≈ 4.14 µM)	12.9 nM	–	–	–
CC(=O)c1ccc(C#Cc2ccc(-c3cc(Cn4ccnc4[C@H](C)O)no3)cc2)cc1 [Example 26, (S)-1-(4-((4-(3-((2-(1-hydroxyethyl)-1H-imidazol-1-yl)methyl)isoxazol-5-yl)phenyl)ethynyl)phenyl)ethan-1-one]	0.5 µg/mL (≈ 1.22 µM)	0.125 µg/mL (≈ 0.304 µM)	71.7 nM	–	–	–
C[C@H](O)c1nccn1Cc1cc(-c2ccc(C#Cc3ccc(Cn4cccn4)cc3)cc2)on1 [Example 33, (S)-1-(1-((5-(4-((4-((1H-pyrazol-1-yl)methyl)phenyl)ethynyl)phenyl)isoxazol-3-yl)methyl)-1H-imidazol-2-yl)ethan-1-ol]	0.25 µg/mL (≈ 0.556 µM)	0.125 µg/mL (≈ 0.278 µM)	28.1 nM	–	–	–
C[C@H](O)c1nccn1Cc1cc(-c2ccc(C#Cc3ccc(CN4CCOCC4)cc3)cc2)no1 [Example 3, (S)-1-(1-((3-(4-((4-(morpholinomethyl)phenyl)ethynyl)phenyl)isoxazol-5-yl)methyl)-1H-imidazol-2-yl)ethan-1-ol]	2 µg/mL (≈ 4.27 µM)	1 µg/mL (≈ 2.13 µM)	24.9 nM	–	–	–
C[C@H](O)c1nccn1Cc1cc(-c2ccc(C#Cc3ccc(CNCCS(C)(=O)=O)nc3)cc2)on1 [Example 59, (S)-1-(1-((5-(4-((6-(((2-(methylsulfonyl)ethyl)amino)methyl)pyridin-3-yl)ethynyl)phenyl)isoxazol-3-yl)methyl)-1H-imidazol-2-yl)ethan-1-ol]	8 µg/mL (≈ 15.8 µM)	2 µg/mL (≈ 3.96 µM)	21.8 nM	–	–	–
C[C@H](O)c1nccn1Cc1cc(-c2ccc(C#Cc3ccc(CN4CC(CC(=O)O)C4)nc3)cc2)on1 [Example 115, (S)-2-(1-((5-((4-(3-((2-(1-hydroxyethyl)-1H-imidazol-1-yl)methyl)isoxazol-5-yl)phenyl)ethynyl)pyridin-2-yl)methyl)azetidin-3-yl)acetic acid]	8 µg/mL (≈ 16.1 µM)	2 µg/mL (≈ 4.02 µM)	24.5 nM	–	–	–
C[C@H](O)c1nccn1Cc1cc(-c2ccc(C#Cc3ccc(OCCO)cc3)cc2)on1 [Example 29, (S)-1-(1-((5-(4-((4-(2-hydroxyethoxy)phenyl)ethynyl)phenyl)isoxazol-3-yl)methyl)-1H-imidazol-2-yl)ethan-1-ol]	–	–	14 nM	–	0.25 µg/mL (≈ 0.582 µM)	0.25 µg/mL (≈ 0.582 µM)
C[C@H](O)c1nccn1Cc1cc(-c2ccc(C#Cc3ccc(CN4CCC(CO)CC4)cc3)cc2)on1 [Example 56, (S)-1-(1-((5-(4-((4-((4-(hydroxymethyl)piperidin-1-yl)methyl)phenyl)ethynyl)phenyl)isoxazol-3-yl)methyl)-1H-imidazol-2-yl)ethan-1-ol]	4 µg/mL (≈ 8.05 µM)	2 µg/mL (≈ 4.03 µM)	14.7 nM	–	–	–
C[C@H](O)c1nccn1Cc1cc(-c2ccc(C#Cc3ccncc3)cc2)on1 [Example 10, (S)-1-(1-((5-(4-(pyridin-4-ylethynyl)phenyl)isoxazol-3-yl)methyl)-1H-imidazol-2-yl)ethan-1-ol]	1 µg/mL (≈ 2.7 µM)	0.5 µg/mL (≈ 1.35 µM)	30.4 nM	–	–	–
C[C@H](O)c1nccn1Cc1cc(-c2ccc(C#Cc3ccc(CNCC(=O)O)cc3)cc2)on1 [Example 99, (S)-(4-((4-(3-((2-(1-hydroxy-ethyl)-1H-imidazol-1-yl)methyl)isoxazol-5-yl)phenyl)ethynyl)benzyl)glycinate]	–	4 µg/mL (≈ 8.76 µM)	–	19.4 nM	–	–
C[C@H](O)c1nccn1Cc1cc(-c2ccc(C#Cc3ccc(CN4CCOCC4C(=O)O)cc3)cc2)on1 (stereo partly drawn) [Example 20, 4-(4-((4-(3-((2-((S)-1-hydroxyethyl)-1H-imidazol-1-yl)methyl)isoxazol-5-yl)phenyl)ethynyl)benzyl)morpholin-3-carboxylic acid]	–	4 µg/mL (≈ 7.8 µM)	9.86 nM	–	–	–
C[C@H](O)c1nccn1Cc1cc(-c2ccc(C#Cc3ccc(C(=O)N4CCC(C(=O)O)CC4)cc3)cc2)on1 [Example 69, (S)-1-(4-((4-(3-((2-(1-hydroxyethyl)-1H-imidazol-1-yl)methyl)isoxazol-5-yl)phenyl)ethynyl)benzoyl)piperidin-4-carboxylic acid]	–	8 µg/mL (≈ 15.3 µM)	10.4 nM	–	–	–
C[C@H](O)c1nccn1Cc1cc(-c2ccc(C#Cc3ccc(C(=O)N4CCC(O)CC4)cc3)cc2)on1 [Example 67, (S)-(4-((4-(3-((2-(1-hydroxy-ethyl)-1H-imidazol-1-yl)methyl)isoxazol-5-yl)phenyl)ethynyl)phenyl)(4-hydroxypiperidin-1-yl)methanone]	–	2 µg/mL (≈ 4.03 µM)	10.4 nM	–	–	–
C[C@H](O)c1nccn1Cc1cc(-c2ccc(C#Cc3cccc(C(=O)O)c3)cc2)on1 [Example 107, (S)-3-((4-(3-((2-(1-hydroxy-ethyl)-1H-imidazol-1-yl)methyl)isoxazol-5-yl)phenyl)ethynyl) benzoic acid]	–	8 µg/mL (≈ 19.4 µM)	16.3 nM	–	–	–
